Counter-ions that a name gives are not always drawn. Like-named read-outs stand apart in the source and are kept apart here. Positions of bridges follow the written chain, without caps; N, C: chain ends. Non-standard residues stand in square brackets, D forms with d. Residues, ends and D or L forms follow the SMILES beside them. Trp(5-OH) = N[C@@H](Cc1c[nH]c2ccc(O)cc12)C(=O)O; NMePhe(4-F) = CN[C@@H](Cc1ccc(F)cc1)C(=O)O; NMehPhe = CN[C@@H](CCc1ccccc1)C(=O)O; NMeAoc(2) = CCCCCC[C@H](NC)C(=O)O; Aad = N[C@@H](CCCC(=O)O)C(=O)O; Gly(cPr) = N[C@H](C(=O)O)C1CC1; NMehCys = CN[C@@H](CCS)C(=O)O; Ahp(2) = CCCCC[C@H](N)C(=O)O; NMeK = CN[C@@H](CCCCN)C(=O)O; NMeDap = CN[C@@H](CN)C(=O)O; NMeS = CN[C@@H](CO)C(=O)O
Key:
Assay type in all cases: binding
human HER2 (23-652) [1] = target: T1, human HER2 (23-652) (Homo sapiens, UniProt P04626); test: Surface plasmon resonance (SPR) for assessment of peptide affinity, human HER2; set-up: towards human HER2 (23-652) and mouse HER2 (23-653); made in house
Outline: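 Binding kinetics fitted from sensorgrams with 280 s peptide association then 3000 s dissociation (30 uL/min), using HER2 (23-652) either directly immobilized (SA/CM5) or anti-Fc-captured; 3 M magnesium chloride used for regeneration.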

mouse HER2 (23-653) [2] = target: T2, mouse HER2 (23-653) (Mus musculus, UniProt P70424); test: Surface plasmon resonance (SPR) for assessment of peptide affinity, mouse HER2; set-up: mouse HER2 (23-653) using a Cy5 labeled peptide as a probe; made in house
From the text: Each protein was immobilized either onto a SA sensorchip (Cytiva, BR-1005-31) or CM5 sensorchip (Cytiva, BR-1005-30) to a density of 800-2000 RU.

human HER2 (23-652) [3] = target: T1, human HER2 (23-652); test: TR-FRET competition assay for peptide potency, human HER2; set-up: towards human HER2 (23-652) and mouse HER2 (23-653); made in house; host or cells: mammalian cells
mouse HER2 (23-653) [4] = target: T2, mouse HER2 (23-653); test: TR-FRET competition assay for peptide potency, mouse HER2; set-up: mouse HER2 (23-653) using a Cy5 labeled peptide as a probe; made in house; host or cells: mammalian cells; settings: 0.1 nM mouse HER2, 24 h incubation
[5] = SPR, human HER2 extracellular domain, 25° C., 1:1 binding model, read-out: huHER2-SPR-ONC KD
[6] = SPR, mouse HER2 extracellular domain, 25° C., 1:1 binding model, read-out: moHER2-SPR-ONC KD
[7] = TR-FRET competition with Cy5 labeled peptide probe, read-out: moHER2 TR-FRET IC50
[8] = huHER2 TR-FRET IC50, TR-FRET competition with Cy5 labeled peptide probe, 0.1 nM human HER2, 24 h incubation
[9] = moHER2 TR-FRET IC50, TR-FRET competition with Cy5 labeled peptide probe

Row | Compound | Kd (human HER2 (23-652) [1]; [5]) [nM] | Kd (mouse HER2 (23-653) [2]; [6]) [nM] | IC50 (human HER2 (23-652) [3]; read-out: huHER2 TR-FRET IC50) [nM] | IC50 (mouse HER2 (23-653) [4]; [7]) [nM] | Kd (human HER2 (23-652) [1]) [nM] | Kd (mouse HER2 (23-653) [2]) [nM] | IC50 (human HER2 (23-652) [3]; [8]) [nM] | IC50 (mouse HER2 (23-653) [4]; [9]) [nM]
1 | CN1C(=O)[C@H](CO)NC(=O)[C@H](Cc2ccc(O)cc2)NC(=O)[C@@H](N)Cc2cccc(c2)CC(=O)NC[C@@H](C(=O)N(C)[C@@H](Cc2ccc(F)cc2)C(N)=O)N(C)C(=O)[C@H](C2CC2)NC(=O)[C@H](Cc2c[nH]c3ccccc23)NC(=O)[C@H](Cc2c[nH]c3ccc(O)cc23)NC(=O)[C@H](CO)N(C)C(=O)[C@@H]1CCc1ccccc1 [Example A31, (6S,9S,12S,15S,18S,21S,24S,27S,30S)-12-((1H-indol-3-yl)methyl)-30-amino-N—((S)-1-amino-3-(4-fluorophenyl)-1-oxopropan-2-yl)-9-cyclopropyl-15-((5-hydroxy-1H-indol-3-yl)methyl)-27-(4-hydroxybenzyl)-18,24-bis(hydroxymethyl)-N,7,19,22-tetramethyl-3,8,11,14,17,20,23,26,29-nonaoxo-21-phenethyl-4,7,10,13,16,19,22,25,28-nonaaza-1 (1,3)-benzenacyclohentriacontaphane-6-carboxamide TFA salt] | 485 | 755 | 844 | > 1000 | – | – | – | –
2 | CC(=O)N[C@H]1CCCC(=O)NC[C@@H](C(=O)N(C)[C@@H](Cc2ccc(F)cc2)C(=O)N[C@@H](CCCCNC(=O)CN2CCN(CC(=O)O)CCN(CC(=O)O)CCN(CC(=O)O)CC2)C(N)=O)N(C)C(=O)[C@H]([C@H](C)O)NC(=O)[C@H](Cc2c[nH]c3ccccc23)NC(=O)[C@H](Cc2c[nH]c3ccc(O)cc23)NC(=O)[C@H](CCCCNC(=O)CCO)N(C)C(=O)[C@H](CCc2ccccc2)N(C)C(=O)[C@H](CO)NC(=O)[C@H](Cc2ccc(O)cc2)NC1=O [Example B7] | 0.4 | 0.8 | 0.4 | 1.3 | – | – | – | –
3 | CCCCC[C@@H]1NC(=O)[C@H](Cc2c[nH]c3ccc(O)cc23)NC(=O)[C@H](CCCCNC(C)=O)N(C)C(=O)[C@H](CCc2ccccc2)N(C)C(=O)[C@H](CO)NC(=O)[C@H](Cc2ccc(O)cc2)NC(=O)[C@@H](NC(C)=O)CCCC(=O)NC[C@@H](C(=O)N(C)[C@@H](Cc2ccc(F)cc2)C(N)=O)N(C)C(=O)[C@H](C2CC2)NC1=O [Example A17, (3S,6S,9S,12S,15S,18S,21S,24S,27S)-27-acetamido-15-(4-acetamidobutyl)-N-((S)-1-amino-3-(4-fluorophenyl)-1-oxopropan-2-yl)-6-cyclopropyl-12-((5-hydroxy-1H-indol-3-yl)methyl)-24-(4-hydroxybenzyl)-21-(hydroxymethyl)-N,4,16,19-tetramethyl-5,8,11,14,17,20,23,26,31-nonaoxo-9-pentyl-18-phenethyl-1,4,7,10,13,16,19,22,25-nonaazacyclohentriacontane-3-carboxamide] (Ac-[Aad]YS[NMehPhe][NMeK](Ac)[Trp(5-OH)][Ahp(2)][Gly(cPr)][NMeDap][NMePhe(4-F)]-NH2; lactam 1-9) | > 6000 | > 6000 | > 1000 | > 1000 | – | – | – | –
4 | COCCOCCOCCOCCOCCOCCOCCOCCOCCOCCOCCOCCC(=O)N[C@H]1CCCC(=O)NC[C@@H](C(=O)N(C)[C@@H](Cc2ccc(F)cc2)C(=O)N[C@@H](CCCCNC(=O)c2ccc([N+](C)(C)C)nc2)C(N)=O)N(C)C(=O)[C@H](C2CC2)NC(=O)[C@H](Cc2c[nH]c3ccccc23)NC(=O)[C@H](Cc2c[nH]c3ccc(O)cc23)NC(=O)[C@H](CCCCNC(C)=O)N(C)C(=O)[C@H](CCc2ccccc2)N(C)C(=O)[C@H](CO)NC(=O)[C@H](Cc2ccc(O)cc2)NC1=O [Example F4, TFA salt] | – | – | – | – | < 0.1 | 0.1 | < 0.1 | 0.3
5 | CN1C(=O)[C@H](CO)NC(=O)[C@H](Cc2ccc(O)cc2)NC(=O)[C@@H](N)CC(=O)NC[C@@H](C(=O)N(C)[C@@H](Cc2ccc(F)cc2)C(N)=O)N(C)C(=O)[C@H](C2CC2)NC(=O)[C@H](Cc2c[nH]c3ccccc23)NC(=O)[C@H](Cc2c[nH]c3ccc(O)cc23)NC(=O)[C@H](CO)N(C)C(=O)[C@@H]1CCc1ccccc1 [Example A37, (3S,6S,9S,12S,15S,18S,21S,24S,27S)-9-((1H-indol-3-yl)methyl)-27-amino-N-((S)-1-amino-3-(4-fluorophenyl)-1-oxopropan-2-yl)-6-cyclopropyl-12-((5-hydroxy-1H-indol-3-yl)methyl)-24-(4-hydroxybenzyl)-15,21-bis(hydroxymethyl)-N,4,16,19-tetramethyl-5,8,11,14,17,20,23,26,29-nonaoxo-18-phenethyl-1,4,7,10,13,16,19,22,25-nonaazacyclononacosane-3-carboxamide TFA salt] (H-DYS[NMehPhe][NMeS][Trp(5-OH)]W[Gly(cPr)][NMeDap][NMePhe(4-F)]-NH2; lactam 1-9) | – | – | – | – | 452 | 213 | 810 | > 1000
6 | CCCCCC[C@@H](C(N)=O)N(C)C(=O)[C@@H]1CNC(=O)CCC[C@H](NC(C)=O)C(=O)N[C@@H](Cc2ccc(O)cc2)C(=O)N[C@@H](CO)C(=O)N(C)[C@@H](CCc2ccccc2)C(=O)N(C)[C@@H](CCCCNC(C)=O)C(=O)N[C@@H](Cc2c[nH]c3ccc(O)cc23)C(=O)N[C@@H](Cc2c[nH]c3ccccc23)C(=O)N[C@@H](C2CC2)C(=O)N1C [Example A13, (3S,6S,9S,12S,15S,18S,21S,24S,27S)-9-((1H-indol-3-yl)methyl)-27-acetamido-15-(4-acetamidobutyl)-N-((S)-1-amino-1-oxooctan-2-yl)-6-cyclopropyl-12-((5-hydroxy-1H-indol-3-yl)methyl)-24-(4-hydroxybenzyl)-21-(hydroxymethyl)-N,4,16,19-tetramethyl-5,8,11,14,17,20,23,26,31-nonaoxo-18-phenethyl-1,4,7,10,13,16,19,22,25-nonaazacyclohentriacontane-3-carboxamide] (Ac-[Aad]YS[NMehPhe][NMeK](Ac)[Trp(5-OH)]W[Gly(cPr)][NMeDap][NMeAoc(2)]-NH2; lactam 1-9) | 40 | 44 | 46 | 107 | – | – | – | –
7 | CC(=O)NCCCC[C@H]1C(=O)N[C@@H](Cc2c[nH]c3ccc(O)cc23)C(=O)N[C@@H](Cc2c[nH]c3ccccc23)C(=O)N[C@@H](C2CC2)C(=O)N(C)[C@H](C(=O)N(C)[C@@H](Cc2ccc(F)cc2)C(N)=O)CCSSC[C@H](N)C(=O)N[C@@H](Cc2ccc(O)cc2)C(=O)N[C@@H](CO)C(=O)N(C)[C@@H](CCc2ccccc2)C(=O)N1C [Example A56, (5S,8S,11S,14S,17S,20S,23S,26S,29R)-11-((1H-indol-3-yl)methyl)-17-(4-acetamidobutyl)-29-amino-N-((S)-1-amino-3-(4-fluorophenyl)-1-oxopropan-2-yl)-8-cyclopropyl-14-((5-hydroxy-1/-indol-3-y1)methyl)-26-(4-hydroxybenzyl)-23-(hydroxymethyl)-N,6,18,21-tetramethyl-7,10,13,16,19,22,25,28-octaoxo-20-phenethyl-1,2-dithia-6,9,12,15,18,21,24,27-octaazacyclotriacontane-5-carboxamide TFA salt] (H-CYS[NMehPhe][NMeK](Ac)[Trp(5-OH)]W[Gly(cPr)][NMehCys][NMePhe(4-F)]-NH2; disulfide 1-9) | 443 | 413 | 229 | 755 | – | – | – | –
8 | CN1C(=O)[C@H](Cc2ccc(O)cc2)NC(=O)[C@@H](N)CCC(=O)NC[C@@H](C(=O)N(C)[C@@H](Cc2ccc(F)cc2)C(N)=O)N(C)C(=O)[C@H](C2CC2)NC(=O)[C@H](Cc2c[nH]c3ccccc23)NC(=O)[C@H](Cc2c[nH]c3ccc(O)cc23)NC(=O)[C@H](CO)N(C)C(=O)[C@H](CCc2ccccc2)N(C)C(=O)[C@@H]1CO [Example A38, (3S,6S,9S,12S,15S,18S,21S,24S,27S)-9-((1H-indol-3-yl)methyl)-27-amino-N-((S)-1-amino-3-(4-fluorophenyl)-1-oxopropan-2-yl)-6-cyclopropyl-12-((5-hydroxy-1H-indol-3-yl)methyl)-24-(4-hydroxybenzyl)-15,21-bis(hydroxymethyl)-N,4,16,19,22-pentamethyl-5,8,11,14,17,20,23,26,30-nonaoxo-18-phenethyl-1,4,7,10,13,16,19,22,25-nonaazacyclotriacontane-3-carboxamide TFA salt] (H-EY[NMeS][NMehPhe][NMeS][Trp(5-OH)]W[Gly(cPr)][NMeDap][NMePhe(4-F)]-NH2; lactam 1-9) | – | – | – | – | 46 | 67 | 93 | 206

— patent US20250332300A1 (priority 2024, published 2025)
